US9867827B1, “Methods and formulations for topical treatment of psoriasis” (Florida A&M University, priority 2015, dated 2018)
“Also recorded” adds a separate entry of the source.

Columns and labels:
[1] = test system: IMQ-induced psoriatic-like plaques; conditions: after five treatments, topical
Description: (§3) Briefly, IMQ cream was applied topically to the shaven dorsal regions of C57BL/6 mice (4 mg/day/animal) to form psoriatic-like plaques. […] The CPC-urea gels containing the foregoing formulations were applied to the inflamed dorsal regions of the animals for five (5) consecutive days.
The TEWL was estimated using DELFIN VAPOMETER (DELFIN Technologies Ltd, Finland) as a measure of the extent of skin damage and healing with each day of treatment. The device was placed gently on the dorsal region of the mice each day of treatment and the value corresponding to water loss was recorded.

IL17 = assay: Western blot analysis of skin samples, IL17; format: in vivo, C57BL/6 mice; conditions: compared to the TOPGRAF group, p<0.05
Description: (§1) At the end of the study, skin samples were harvested and analyzed for inflammatory proteins by immunohistochemistry and western blot analyses.
(§2) For western blot analysis, skin samples were minced in lysis cocktail composed of RIPA lysis buffer, protease inhibitor (PI) and phenylmethylsulfonyl fluoride (PMSF). BCA Protein Assay Reagent Kit was used to estimate the protein concentration per the manufacturer's protocol. 50 μg of the extracted protein for each sample was loaded into a gel and subjected to SDS-polyacrylamide electrophoresis (SDS-PAGE). The blots were incubated with primary antibodies for TNFα, NFkB, IL23, IL17, and β-actin and subsequently detected with Horseradish peroxidase-conjugated secondary antibodies using a SUPERSIGNAL WEST PICO Chemiluminescent Substrate (Pierce, Rockford, Ill., USA) and BIORAD CHEMIDOC XRS+ imaging system (Hercules, Calif., USA).

IL23 = assay: Western blot analysis of skin samples, IL23; format: in vivo, C57BL/6 mice; conditions: compared to the TOPGRAF group, p<0.05
Description: as §1, §2

NFkB = assay: Western blot analysis of skin samples, NFkB; format: in vivo, C57BL/6 mice; conditions: compared to the TOPGRAF group, p<0.05
Description: as §1, §2

TNFα = assay: Western blot analysis of skin samples, TNFα; format: in vivo, C57BL/6 mice; conditions: compared to the TOPGRAF group, p<0.05
Description: The animals were then treated by applying cetylpyridinum chloride (CPC)-urea gel containing blank formulation as negative control, pemetrexed formulation, siTNFα formulation, pemetrexed-siTNFα combination formulation, or a known tacrolimus cream (TOPGRAF) as a positive control.
as §2, with “S[…]” for “SUPERSIGNAL WEST”

[2] = test system: IMQ-induced psoriatic-like plaques; conditions: after five treatments
Description: as §3
A clinical scoring method for the PASI was used daily to score the severity of the inflammation induced on the dorsal regions of the mice, based on the extent of erythema, scaling, and epidermal thickening. The PASI score was assigned daily after initiating treatment on a scale of 0 to 4, where 0 indicated no inflammation, 1 indicated slight inflammation, 2 indicated moderate inflammation, 3 indicated marked inflammation, and 4 indicated very severe inflammation.

## Nc1nc2[nH]cc(CCc3ccc(C(=O)N[C@@H](CCC(=O)O)C(=O)O)cc3)c2c(=O)[nH]1 [pemetrexed]
[1]
  TEWL compared to tacrolimus cream (TOPGRAF): better TEWL
IL17
  expression of IL17 (western blot): significant reduction; also recorded: decreased expressions
IL23
  expression of IL23 (western blot): significant reduction; also recorded: decreased expressions
NFkB
  expression of NFKB (western blot): significant reduction
TNFα
  expression of TNFα (western blot): significant reduction
[2]; topical
  PASI score compared to tacrolimus cream (TOPGRAF): better PASI score; also recorded: superior
  erythema and scaling compared to other groups: significant reduction in erythema and scaling
[2]; topical CPC-urea gel, scale of 0 to 4
  PASI score: ~0
[2]; topical, b57 compared to TOPGRAF
  psoriatic plaque: reduction in psoriatic plaque
